Data: patent US11066414B2, “Cot modulators and methods of use thereof” (Gilead Sciences, Inc., priority 2015, dated 2021)
Like-named read-outs stand apart in the source and are kept apart here.

Key:
TNFα = test: Cot Monocyte TNFα Cell Based Assay
Human Cot = Human Cot (Homo sapiens (Human), UniProt P41279); test: High Throughput Cot Biochemical Assay; details: Cot HTRF (TR-FRET KinEASE) biochemical assay, 400 μM ATP
[1] = Homo sapiens, Monocyte, read-out: EC50 TNF, LPS-stimulated human monocytes, TNFα TR-FRET
[2] = read-out: EC50 TNF, LPS-stimulated human monocytes, TNFα TR-FRET

Human Cot, sequence (P41279 30-397): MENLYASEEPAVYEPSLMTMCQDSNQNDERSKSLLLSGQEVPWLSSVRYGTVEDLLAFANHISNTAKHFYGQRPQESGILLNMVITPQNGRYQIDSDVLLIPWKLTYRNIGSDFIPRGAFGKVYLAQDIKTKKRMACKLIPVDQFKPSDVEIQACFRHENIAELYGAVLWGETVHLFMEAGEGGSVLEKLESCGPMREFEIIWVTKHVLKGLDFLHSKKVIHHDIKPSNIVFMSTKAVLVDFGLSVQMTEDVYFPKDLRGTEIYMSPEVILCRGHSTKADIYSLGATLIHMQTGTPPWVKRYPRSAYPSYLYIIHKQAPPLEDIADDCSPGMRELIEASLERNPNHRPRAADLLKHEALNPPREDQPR

EC50 (TNFα; [1]) [nM]	IC50 (Human Cot; IC50 HTRF) [nM]	EC50 (TNFα; [2]) [nM]	IC50 (Human Cot; read-out: IC50 HTRF) [nM]	Compound
104	9	–	–	CC(C)(C)CNc1c(C#N)cnc2c(C#N)cc(N[C@H](c3cn(C4(C(F)(F)F)CC4)nn3)c3cccc4c(=O)n(C(F)F)ccc34)cc12 [Example 889, (S)-6-(((2-(difluoromethyl)-1-oxo-1,2-dihydroisoquinolin-5-yl)(1-(1-(trifluoromethyl)cyclopropyl)-1H-1,2,3-triazol-4-yl)methyl)amino)-4-(neopentylamino)quinoline-3,8-dicarbonitrile]
68	6	–	–	Cn1c(=O)ccc2c([C@H](Nc3cc(C#N)c4ncc(C#N)c(NCC(C)(C)C)c4c3)c3cn(C4(C(F)(F)F)CC4)nn3)cccc21 [Example 890, (S)-6-(((1-methyl-2-oxo-1,2-dihydroquinolin-5-yl)(1-(1-(trifluoromethyl)cyclopropyl)-1H-1,2,3-triazol-4-yl)methyl)amino)-4-(neopentylamino)quinoline-3,8-dicarbonitrile]
12	1	–	–	Cn1ccc2c([C@H](Nc3cc(C#N)c4ncc(C#N)c(NCC(C)(C)C)c4c3)c3cn(C45CC(C4)C5)nn3)cccc2c1=O [Example 891, (S)-6-(((1-(bicyclo[1.1.1]pentan-1-yl)-1H-1,2,3-triazol-4-yl)(2-methyl-1-oxo-1,2-dihydroisoquinolin-5-yl)methyl)amino)-4-(neopentylamino)quinoline-3,8-dicarbonitrile]
44	2	–	–	C[C@@H](CF)n1cc([C@@H](Nc2cc(C#N)c3ncc(C#N)c(NCC(C)(C)C)c3c2)c2cccc3ncccc23)nn1 [Example 892, 6-(((S)-(1-((S)-1-fluoropropan-2-yl)-1H-1,2,3-triazol-4-yl)(quinolin-5-yl)methyl)amino)-4-(neopentylamino)quinoline-3,8-dicarbonitrile]
–	–	99	4	CC(C)(C)CNc1c(C#N)cnc2c(C#N)cc(N[C@H](c3cn(C(CF)CF)nn3)c3cccc4ncccc34)cc12 [Example 893, (S)-6-(((1-(1,3-difluoropropan-2-yl)-1H-1H-1,2,3-triazol-4-yl)(quinolin-5-yl)methyl)amino)-4-(neopentyl-amino)quinoline-3,8-dicarbonitrile]
–	–	54	3	CC(C)(CNc1c(C#N)cnc2c(C#N)cc(N[C@H](c3cn(C4(C(F)F)CC4)nn3)c3cccc4ncccc34)cc12)C(F)(F)F [Example 894]
30	3	–	–	CC(C)(CNc1c(C#N)cnc2c(C#N)cc(N[C@H](c3cn(C4(C5CC5)CC4)nn3)c3cccc4ncccc34)cc12)C(F)(F)F [Example 896, (S)-6-(((1-([1,1′-bi(cyclopropan)]-1-yl)-1H-1,2,3-triazol-4-yl)(quinolin-5-yl)methyl)amino)-4-((3,3,3-trifluoro-2,2-dimethylpropyl)amino)quinoline-3,8-dicarbonitrile]
18	2	–	–	CC(C)(CNc1c(C#N)cnc2c(C#N)cc(N[C@H](c3cn(C45CC(C4)C5)nn3)c3cccc4ncccc34)cc12)C(F)(F)F [Example 897, (S)-6-(((1-(bicyclo[1.1.1]pentan-1-yl)-1H-1,2,3-triazol-4-yl)(quinolin-5-yl)methyl)amino)-4-((3,3,3-trifluoro-2,2-dimethylpropyl)amino)quinoline-3,8-dicarbonitrile]
29	2	–	–	CC(C)(C)CNc1c(C#N)cnc2c(C#N)cc(N[C@H](c3cn([C@@H]4C[C@@H]4F)nn3)c3cccc4ncccc34)cc12 [Example 899, 6-(((S)-(1-((1R,2S)-2-fluorocyclopropyl)-1H-1,2,3-triazol-4-yl)(quinolin-5-yl)methyl)amino)-4-(neopentylamino)quinoline-3,8-dicarbonitrile]
30	3	–	–	Cc1ccc2c([C@H](Nc3cc(C#N)c4ncc(C#N)c(NCC(C)(C)C)c4c3)c3cn(C45CC(C4)C5)nn3)cccc2n1 [Example 900, (S)-6-(((1-(bicyclo[1.1.1]pentan-1-yl)-1H-1,2,3-triazol-4-yl)(2-methylquinolin-5-yl)methyl)amino)-4-(neopentylamino)quinoline-3,8-dicarbonitrile]
1000	484	–	–	CC(C)(C)CNc1c(C#N)cnc2c(C#N)cc(N[C@H](c3cn(C45CC(C4)C5)nn3)c3cccc4nc(C(F)F)ccc34)cc12 [Example 901, (S)-6-(((1-(bicyclo[1.1.1]pentan-1-yl)-1H-1,2,3-triazol-4-yl)(2-(difluoromethyl)quinolin-5-yl)methyl)amino)-4-(neopentylamino)quinoline-3,8-dicarbonitrile]
–	–	36	3	Cc1ccc2c([C@H](Nc3cc(C#N)c4ncc(C#N)c(NCC(C)(C)C)c4c3)c3cn(C4(C)CC4)nn3)cccc2n1 [Example 902]
78	5	–	–	Cc1ncsc1[C@H](Nc1cc(C#N)c2ncc(C#N)c(NCC(C)(C)C)c2c1)c1cn(C2(C(F)(F)F)CC2)nn1 [Example 904, (R)-6-(((4-methylthiazol-5-yl)(1-(1-(trifluoromethyl)cyclopropyl)-1H-1,2,3-triazol-4-yl)methyl)amino)-4-(neopentylamino)quinoline-3,8-dicarbonitrile]
–	–	51	4	Cc1nnc(C2(n3cc([C@@H](Nc4cc(C#N)c5ncc(C#N)c(NCC(C)(C)C)c5c4)c4ccc(F)nc4C)nn3)CC2)o1 [Example 907, (S)-6-(((6-fluoro-2-methylpyridin-3-yl)(1-(1-(5-methyl-l,3,4-oxadiazol-2-yl)cyclopropyl)-1H-1,2,3-triazol-4-yl)methyl)amino)-4-(neopentylamino)quinoline-3,8-dicarbonitrile]
116	8	–	–	CC(C)(C)CNc1c(C#N)cnc2c(C#N)cc(N[C@H](c3cn(C4(C(F)(F)F)CC4)nn3)c3cccc4cnc(C#N)cc34)cc12 [Example 909, (S)-6-(((3-cyanoisoquinolin-5-yl)(1-(1-(trifluoromethyl)cyclopropyl)-1H-1,2,3-triazol-4-yl)methyl)amino)-4-(neopentylamino)quinoline-3,8-dicarbonitrile]
148	5	–	–	CC(C)(C)CNc1c(C#N)cnc2c(C#N)cc(N[C@H](c3cn(C4(C(F)(F)F)CC4)nn3)c3ccc(C#N)c4ncccc34)cc12 [Example 910, (S)-6-(((8-cyanoquinolin-5-yl)(1-(1-(trifluoromethyl)cyclopropyl)-1H-1,2,3-triazol-4-yl)methyl)amino)-4-(neopentylamino)quinoline-3,8-dicarbonitrile]
–	–	85	7	COc1nccc2c([C@H](Nc3cc(Cl)c4ncc(C#N)c(NCC(C)(C)C)c4c3)c3cn(C45CC(C4)C5)nn3)cccc12 [Example 911, (S)-6-(((1-(bicyclo[1.1.1]pentan-1-yl)-1H-1,2,3-triazol-4-yl)(1-methoxylsoquinolin-5-yl)methyl)amino)-8-chloro-4-(neopentylamino)quinoline-3-carbonitrile]
–	–	78	6	COc1nccc2c([C@H](Nc3cc(Cl)c4ncc(C#N)c(NCC(C)(C)C)c4c3)c3cn(C4CC4)nn3)cccc12 [Example 912, (S)-8-chloro-6-(((1-cyclopropyl-1H-1,2,3-triazol-4-yl)(1-methoxylsoquinolin-5-yl)methyl)amino)-4-(neopentylamino)quinoline-3-carbonitrile]
–	–	86	6	COc1nccc2c([C@H](Nc3cc(Cl)c4ncc(C#N)c(NCC(C)(C)C)c4c3)c3cn(C4(C)CC4)nn3)cccc12 [Example 913, (S)-8-chloro-6-(((1-methoxylsoquinolin-5-yl)(1-(1-methylcyclopropyl)-1H-1,2,3-triazol-4-yl)methyl)amino)-4-(neopentylamino)quinoline-3-carbonitrile]
–	–	116	9	COc1nccc2c([C@H](Nc3cc(Cl)c4ncc(C#N)c(NCC(C)(C)C)c4c3)c3cn(C4(C(F)F)CC4)nn3)cccc12 [Example 914, (S)-8-chloro-6-(((1-(1-(difluoromethyl)cyclo-propyl)-1H-1,2,3-triazol-4-yl)(1-methoxylsoquinolin-5-yl)methyl)amino)-4-(neopentylamino)quinoline-3-carbonitrile]
324	44	–	–	CC(C)(C)CNc1c(C#N)cnc2c(Cl)cc(N[C@H](c3cn(C4(C(F)(F)F)CC4)nn3)c3cccc4cnc(Cl)cc34)cc12 [Example 915, (S)-8-chloro-6-(((3-chloroisoquinolin-5-yl)(1-(1-(trifluoromethyl)cyclopropyl)-1H-1,2,3-triazol-4-yl)methyl)amino)-4-(neopentylamino)quinoline-3-carbonitrile]
31	3	–	–	CC(C)(CNc1c(C#N)cnc2c(Cl)cc(N[C@H](c3cn(C45CC(C4)C5)nn3)c3ccc(F)c4ncccc34)cc12)C(F)(F)F [Example 917, (S)-6-(((1-(bicyclo[1.1.1]pentan-1-yl)-1H-1,2,3-triazol-4-yl)(8-fluoroquinolin-5-yl)methyl)amino)-8-chloro-4-((3,3,3-trifluoro-2,2-dimethylpropyl)amino)quinoline-3-carbonitrile]
42	3	–	–	CC(C)(CNc1c(C#N)cnc2c(Cl)cc(N[C@H](c3cn(C4(C(F)F)CC4)nn3)c3ccc(F)c4ncccc34)cc12)C(F)(F)F [Example 918, (S)-8-chloro-6-(((1-(1-(difluoromethyl)cyclopropyl)-1H-1,2,3-triazol-4-yl)(8-fluoroquinolin-5-yl)methyl)amino)-4-((3,3,3-trifluoro-2,2-dimethylpropyl)amino)quinoline-3-carbonitrile]
